Patent US12291721B2, “Activated lymphocytes comprising cytokine-induced killer cells and preparation method therefor” (GREENCROSSCELL, priority 2019, dated 2025)

Columns and labels:
[1] = tested on: human pancreatic cancer (AsPC-1); assay: Anticancer effects on human pancreatic cancer (AsPC-1) xenograft; format: in vivo, nude mice
Method: Nude mice were purchased and stored in a specific pathogen free (SPF) room of the Korea Research Institute of Bioscience and Biotechnology, and allowed to acclimate for 1 week before use. Human pancreatic cancer, that is, AsPC1 cells were injected subcutaneously into each nude mouse at a concentration of 9×10^6 cells. […] As a positive control group, adriamycin was administered intravenously at a concentration of 2 mg/kg once a week for total 4 times.
(§1) Standard deviations (SDs) and p-values of all test results were calculated using ANOVA (Prisim, GraphPad software, USA) and student's t-test.

[2] = tested on: human prostate cancer (PC-3); assay: Anticancer effects on human prostate cancer (PC-3) xenograft; format: in vivo, nude mice
Method: Nude mice were purchased and stored in a specific pathogen free (SPF) room of the Korea Research Institute of Bioscience and Biotechnology, and allowed to acclimate for 1 week before use. Human prostate cancer, that is, PC-3 cells were injected subcutaneously into each nude mouse at a concentration of 9×10^6 cells. […] As a positive control group, adriamycin was administered intravenously at a concentration of 2 mg/kg once a week for total 4 times.
as §1

[3] = tested on: human colon cancer (SW620); assay: Anticancer effects on human colon cancer (SW620) xenograft; format: in vivo, nude mice
Method: Nude mice were purchased and stored in a specific pathogen free (SPF) room of the Korea Research Institute of Bioscience and Biotechnology, and allowed to acclimate for 1 week before use. Human colon cancer, that is, SW620 cells were injected subcutaneously into each nude mouse at a concentration of 6×10^6 cells. […] As a positive control group, adriamycin was administered intravenously at a concentration of 2 mg/kg once a week for total 4 times.
as §1

[4] = tested on: human renal cancer (ACHN); assay: Anticancer effects on human renal cancer (ACHN) xenograft
Method: Nude mice were purchased and stored in a specific pathogen free (SPF) room of the Korea Research Institute of Bioscience and Biotechnology, and allowed to acclimate for 1 week before use. Human renal cancer, that is, ACHN cells were injected subcutaneously into each nude mouse at a concentration of 1.2×10^7 cells. […] As a positive control group, adriamycin was administered intravenously at a concentration of 2 mg/kg once a week for total 4 times.
Standard deviations (SDs) and p-values of all test results were calculated using ANOVA (Prisim. GraphPad software, USA) and student's t-test.

[5] = tested on: human melanoma cancer (LOX-IMV1); assay: Anticancer effects on human melanoma cancer (LOX-IMV1) xenograft
Method: Nude mice were purchased and stored in a specific pathogen free (SPF) room of the Korea Research Institute of Bioscience and Biotechnology, and allowed to acclimate for 1 week before use. Human melanoma cancer, that is, LOX-IMV1 cells were injected subcutaneously into each nude mouse at a concentration of 1.5×10^6 cells. […] As a positive control group, adriamycin was administered intravenously at a concentration of 2 mg/kg once a week for total 3 times.
as §1

[6] = adriamycin 2 mg/kg i.v., day 25
[7] = day 25 compared with Day-1 (100%), adriamycin 2 mg/kg
[8] = adriamycin 2 mg/kg i.v., day 22
[9] = adriamycin 2 mg/kg i.v., day 28
[10] = adriamycin 2 mg/kg i.v., day 15

## COc1cccc2c1C(=O)c1c(O)c3c(c(O)c1C2=O)C[C@@](O)(C(=O)CO)C[C@@H]3O[C@H]1C[C@H](N)[C@H](O)[C@H](C)O1 [adriamycin]
[1]; [6]
  growth inhibition (tumor size): 48%
  growth inhibition (tumor weight): 44%
  tumor size: 130±28 mm^3
  tumor weight: 473 ± 64 mg
[1]; adriamycin (2 mg/kg), day 25, AsPC-1
  Tumor growth rate (%) compared to the control group: 55 ± 8%
[1]; [7]
  body weight change: 125%
[2]; [8]
  growth inhibition (tumor size): 40%
  growth inhibition (tumor weight): 40%
  tumor size: 225±59 mm^3
  tumor weight: 808 ± 156 mg
[2]; adriamycin (2 mg/kg), day 22, PC-3
  Tumor growth rate (%) compared to the control group: 60 ± 12%
[2]; day 22 compared with Day-1 (100%), adriamycin 2 mg/kg
  body weight change: 102%
[3]; [6]
  growth inhibition (tumor size): 48%
  growth inhibition (tumor weight): 49%
  tumor size: 142±97 mm^3
  tumor weight: 834 ± 306 mg
[3]; adriamycin (2 mg/kg), day 25, SW-620
  Tumor growth rate (%) compared to the control group: 54 ± 28%
[3]; [7]
  body weight change: 114%
[4]; [9]
  growth inhibition (tumor size): 40%
  growth inhibition (tumor weight): 37%
  tumor size: 192±44 mm^3
  tumor weight: 409 ± 41 mg
[4]; adriamycin (2 mg/kg), day 28, ACHN
  Tumor growth rate (%) compared to the control group: 63 ± 6%
[4]; day 28 compared with Day-1 (100%), adriamycin 2 mg/kg
  body weight change: 95%
[5]; [10]
  growth inhibition (tumor size): 72%
  growth inhibition (tumor weight): 70%
  tumor weight: 496 ± 306 mg
[5]; adriamycin (2 mg/kg), day 15, LOX-IMVI
  Tumor growth rate (%) compared to the control group: 30 ± 18%
[5]; day 15 compared with Day-1, adriamycin 2 mg/kg
  body weight change: 122%
